# From patent publication US20190121935A1, “PHENOTYPIC PERSONALIZED MEDICINE: ADAPTIVE OPTIMIZATION OF PATIENT-SPECIFIC COMBINATION THERAPY” (THE REGENTS OF THE UNIVERSITY OF CALIFORNIA, priority 2015, published 2019)
# Tests used:
# [1] = human, in vivo
# Experimental: This prospective trial was conducted under IRB#14-001682, IRB#14-001682-AM-00001, and IRB#14-001682-AM-00002 approved by the UCLA Institutional Review Board. Following liver transplant, patients were started on a regimen of tacrolimus, mycophenolate, and methylprednisolone. According to protocol, methylprednisolone dosing was tapered using a 1000-150-[…]-120-80-40-20 mg regimen. Methylprednisolone was subsequently changed to prednisone given at 20 mg which was commonly followed with a tapering protocol. Mycophenolate dosing was administered according to protocols determined by the clinical team. Serum trough levels were taken between 4:00-6:00 AM daily, and a first dose of tacrolimus was administered between 5:00 AM-6:00 AM daily, following the serum trough recording. The clinical team obtained the daily treatment regimen details including drugs already administered, drugs to be administered, hemodialysis to be performed, co-infections, and planned prophylaxis and sent an updated clinical chart for each patient to the FSC team.
# Serum levels, drug regimen dosages, and other events such as hemodialysis were obtained every morning prior to analyses. In order to project optimum dosages, a 2nd order polynomial fit for each patient was made from linear regression with mainly two variables, such as trough concentration and tacrolimus dosing amount, and it was used with at least three prior data points for the specific patient.
# Statistical analyses were performed by analyzing the accuracy of correlating 2nd order polynomial mapping to the patients' data since patient-specific treatment was conducted in this study. This was accomplished using the coefficient of determination, or R-squared analysis. Values were used to correlate clinical and regression data. Where relevant, statistical significances of all the generated maps for the data analyses were determined using a t-test at α=0.05 level of confidence.
# [2] = Retrospective clinical analysis using FSC of liver transplant patient data (tacrolimus serum trough levels, Patients A and B); type: in vivo, human; conditions: standard of care (clinically observed), target 8-10 ng/ml
# Experimental: Retrospective clinical analysis was performed under IRB#14-001682 approved by the UCLA Institutional Review Board. Discharged liver transplantation patient data, such as serum level and drug regimen dosages, were obtained for analyses for the retrospective study. […] In this process, the inclusion of all the drugs as covariates allowed better representation of each patient's data and examination of the effects of drug-drug interactions within each patient's constructed map. Minimum values based on the difference between the individual patient's serum level reading and a target serum level during various small time windows were collected, and these were entered into the globally fitted map of each patient in order to find the optimum dose for that specific patient.
Structure (SMILES),Serum Result (change of tacrolimus serum trough level on co-administration change) [1],day from which trough levels deviated permanently from the target range [2],share of treatment with trough levels outside of the target range [1],trough reading higher than the anticipated trough level [1],trough reading lower than the anticipated trough level [1]
CC(=O)NC[C@H]1CN(c2ccc(N3CCOCC3)c(F)c2)C(=O)O1 [Linezolid],+0.7,–,–,–,–
C=CC[C@@H]1/C=C(\C)C[C@H](C)C[C@H](OC)[C@H]2O[C@@](O)(C(=O)C(=O)N3CCCC[C@H]3C(=O)O[C@H](/C(C)=C/[C@@H]3CC[C@@H](O)[C@H](OC)C3)[C@H](C)[C@@H](O)CC1=O)[C@H](C)C[C@@H]2OC [tacrolimus],–,≥ 15 days,91%,0.5 ng/mL,2.0 ng/mL
